The source of these data is ChEMBL document CHEMBL1250437, “Callyaerins A-F and H, new cytotoxic cyclic peptides from the Indonesian marine sponge Callyspongia aerizusa” (Bioorg Med Chem, 2010).

In one data set the test system is Bacillus subtilis. In words: Antimicrobial activity against Bacillus subtilis at 5 to 10 uL. In kind it is functional.
In the next data set the test system is Candida albicans. The data set can be described thus: Antimicrobial activity against Candida albicans at 5 to 10 uL. In kind it is functional.
The subject of the next data set is Escherichia coli. In words: Antimicrobial activity against Escherichia coli at 5 to 10 uL. The data set is classed as functional.
A further data set deals with L5178Y. The data set can be described thus: Cytotoxicity against mouse L5178Y cells. In kind it is functional. The conditions noted are these: read-out: ED50 (the source's name).
A further data set has as its system Staphylococcus aureus. In words: Antimicrobial activity against Staphylococcus aureus at 5 to 10 uL. The data set is classed as functional.
Data set [1] is described as follows: Toxicity in brine shrimp assessed as mortality at 20 ug/ml. The conditions noted are these: artemia, in vivo; read-out: Activity. The data set is classed as organism-based.
Data set [2] in a line: Toxicity in brine shrimp assessed as mortality at 50 ug/ml. In kind it is organism-based. Conditions: artemia, in vivo; read-out: Activity.
Another data set concerns PC-12. In words: Cytotoxicity against rat PC12 cells. The data set is classed as functional. The conditions noted are these: read-out: ED50 (the source's name).
Another data set relates to HeLa. The data set can be described thus: Cytotoxicity against human HeLa cells. The data set is classed as functional. Conditions: read-out: ED50 (the source's name).

For the molecule `CC[C@@H](C)[C@@H]1NC(=O)[C@H](C(C)C)NC(=O)[C@@H]2C[C@@H](O)CN2C(=O)[C@H]([C@@H](C)CC)N/C=C(\C(=O)N2CCC[C@H]2C(=O)N[C@H](C(=O)N[C@@H](Cc2ccccc2)C(=O)NCC(N)=O)[C@@H](C)CC)NC(=O)[C@H](CC(C)C)NC(=O)[C@@H]2CCCN2C(=O)[C@@H]2CCCN2C(=O)[C@H](CC(C)C)NC1=O` [CALLYAERIN A], the “inhibition zone (IZ)” value in the data set on Bacillus subtilis turned out to be 0 mm; in the data set with Candida albicans it was 25 mm; with Escherichia coli, 10 mm; in the data set on Staphylococcus aureus, 9 mm. The EC50 with L5178Y turned out to be 3.61 µM.

Consider `CC[C@@H](C)[C@@H]1NC(=O)[C@H]([C@@H](C)CC)NC(=O)[C@@H]2C[C@@H](O)CN2C(=O)[C@H]([C@H](C)CC)N/C=C(\C(=O)N2CCC[C@H]2C(=O)N[C@H](C(=O)N[C@H](C(=O)O)[C@@H](C)CC)[C@@H](C)CC)NC(=O)[C@H](CC(C)C)NC(=O)[C@@H]2CCCN2C(=O)[C@@H]2CCCN2C(=O)[C@H](CC(C)C)NC1=O` [CALLYAERIN B], for which the mortality at 20 ug/ml in [1] stood at 15%. The “inhibition zone (IZ)” value in the data set with Bacillus subtilis is 0 mm; in the data set with Candida albicans it was 15 mm; in the data set on Escherichia coli it was 7 mm; in the data set on Staphylococcus aureus it was 11 mm. Moreover, the EC50 in the data set with L5178Y is 4.14 µM; in the data set with PC-12, above 8 µM; with HeLa, above 8 µM. Moreover, in data set [2], the mortality at 50 ug/ml amounted to 35%.

`CC[C@@H]1NC(=O)[C@@H]2C[C@@H](O)CN2C(=O)[C@@H]2CCCN2C(=O)[C@H](Cc2ccccc2)NC(=O)[C@H]([C@H](C)CC)NC(=O)[C@H]([C@H](C)CC)N/C=C(\C(=O)N2CCC[C@H]2C(=O)N[C@H](C(=O)N[C@@H](CC(N)=O)C(=O)N[C@@H](C)C(=O)N[C@H](C(=O)O)[C@@H](C)CC)[C@@H](C)CC)NC(=O)[C@H](CC(C)C)NC1=O` [CALLYAERIN D]: the “inhibition zone (IZ)” value in the data set with Bacillus subtilis stood at 12 mm; in the data set with Candida albicans it was 0 mm; with Escherichia coli, 0 mm; with Staphylococcus aureus, 0 mm. Moreover, in the data set on L5178Y, the EC50 was found to be 3.03 µM.

Consider `CC[C@H](C)[C@H](NC(=O)[C@@H](NC(=O)[C@@H]1CCCN1C(=O)/C1=C/N[C@@H](CC(C)C)C(=O)N2CCC[C@H]2C(=O)N[C@@H](Cc2ccccc2)C(=O)N[C@@H](Cc2ccccc2)C(=O)N2CCC[C@H]2C(=O)N2CCC[C@H]2C(=O)N[C@@H](C(C)C)C(=O)N1)[C@@H](C)CC)C(=O)NCC(=O)O` [CALLYAERIN E], for which the mortality at 20 ug/ml in [1] stood at 45%. Also, the “inhibition zone (IZ)” value in the data set on Bacillus subtilis is 15 mm; in the data set on Candida albicans, 20 mm; in the data set on Escherichia coli, 9 mm; in the data set on Staphylococcus aureus it was 9 mm. Moreover, the EC50 amounted to 0.39 µM in the data set on L5178Y, 3.8 µM in the data set on PC-12 and 3.4 µM with HeLa. The mortality at 50 ug/ml in data set [2] stood at 70%.

As for `CC[C@H](C)[C@H](NC(=O)[C@H](Cc1ccccc1)NC(=O)[C@H](CC(C)C)NC(=O)[C@@H]1CCCN1C(=O)/C1=C\N[C@@H](C(C)C)C(=O)N2CCC[C@H]2C(=O)N[C@@H](C(C)C)C(=O)N[C@@H](Cc2ccccc2)C(=O)N2CCC[C@H]2C(=O)N1)C(=O)O` [CALLYAERIN F], the “inhibition zone (IZ)” value in the data set with Bacillus subtilis, in the data set on Candida albicans, with Escherichia coli and in the data set on Staphylococcus aureus was 0 mm in each case. The EC50 with L5178Y, with PC-12 and in the data set with HeLa was above 9 µM throughout.

`CC(C)C[C@@H]1NC(=O)[C@@H]2CCCN2C(=O)[C@H]2CCCN2C(=O)[C@@H]2CCCN2C(=O)[C@@H]2CCCN2C(=O)[C@H](CC(C)C)N/C=C(\C(=O)N2CCC[C@H]2C(=O)N[C@@H](Cc2ccccc2)C(=O)N[C@@H](Cc2ccccc2)C(=O)N[C@@H](Cc2ccccc2)C(=O)O)NC1=O` [CALLYAERIN G]: the EC50 in the data set on L5178Y is 0.41 µM; with PC-12 it was above 8 µM; with HeLa, 4.43 µM.

With `CC[C@H](C)[C@H](NC(=O)[C@@H]1CCCN1C(=O)/C1=C\N[C@@H](C(C)C)C(=O)N2CCC[C@H]2C(=O)N[C@@H](C(C)C)C(=O)N[C@@H](Cc2ccccc2)C(=O)N2CCC[C@H]2C(=O)N2CCC[C@H]2C(=O)N[C@@H](CC(C)C)C(=O)N1)C(=O)O` [CALLYEARIN H], in data set [1], the mortality at 20 ug/ml was found to be 30%. Moreover, in the data set on L5178Y, the EC50 is 0.48 µM. For the same molecule, in data set [2], the mortality at 50 ug/ml was 55%.
